The record followed here is ChEMBL document CHEMBL5523694, “Research progress on small molecule inhibitors targeting KRAS G12C with acrylamide structure and the strategies for solving KRAS inhibitor resistance” (Bioorg Med Chem, 2024).

In data set [1] the test system is GTPase KRas (Homo sapiens), P01116 [G12C]. The experiment in a line: Inhibition of KRAS G12C mutant (unknown origin). The conditions noted are these: concentration not given here.
For data set [2], the system named is von Hippel-Lindau disease tumor suppressor/GTPase KRas (Homo sapiens), P01116+P40337 [G12C]. The experiment in a line: PROTAC activity at VHL/KRAS G12C mutant in human NCI-H2030 cells assessed as induction of KRAS G12C degradation relative to control. Format: cell-based.
The target in data set [3] is T1, GTPase KRas (Homo sapiens, UniProt P01116, G12C). As to the kind of experiment: Inhibition of KRAS G12C mutant in human NCI-H2030 cells. Format: cell-based.
The target in data set [4] is T1, GTPase KRas. The experiment in a line: Inhibition of KRAS G12C mutant in human NCI-H23 cells. It is filed as cell-based.
Data set [5] is described as follows: Stability in dog whole blood assessed as half life by LC/MS/MS analysis. Format: ADME, tissue-based, Canis lupus familiaris.
The test system of data set [6] is GTPase KRas (Homo sapiens), P01116 [G12C]. As to the kind of experiment: Binding affinity to KRAS G12C mutant (unknown origin) measured after 3 mins.
The nature of data set [7]: Stability in monkey whole blood assessed as half life by LC/MS/MS analysis. Format: ADME, tissue-based, Macaca mulatta. The conditions noted are these: rhesus monkey.
Data set [8] has as its target T1, GTPase KRas. The experiment in a line: Inhibition of KRAS G12C mutant in human MIA PaCa-2 cells measured after 6 hrs. It is filed as cell-based.
Data set [9] relates to GTPase KRas (Homo sapiens), P01116 [G12C]. As to the kind of experiment: Inhibition of KRAS G12C mutant (unknown origin) at 10 uM relative to control.
The target of data set [10] is T1, GTPase KRas. As to the kind of experiment: Inhibition of KRAS G12C mutant in human NCI-H358 cells measured after 6 hrs. It is filed as cell-based.
The target in data set [11] is T2, von Hippel-Lindau disease tumor suppressor/GTPase KRas (Homo sapiens, UniProt P01116+P40337, G12C). The experiment in a line: PROTAC activity at VHL/KRAS G12C mutant in human NCI-H2030 cells assessed as induction of KRAS G12C degradation. It is filed as cell-based.
The target in data set [12] is T2, von Hippel-Lindau disease tumor suppressor/GTPase KRas. As to the kind of experiment: PROTAC activity at VHL/KRAS G12C mutant in human NCI-H23 cells assessed as induction of KRAS G12C degradation. Format: cell-based.
The test system of data set [13] is von Hippel-Lindau disease tumor suppressor/GTPase KRas (Homo sapiens), P01116+P40337 [G12C]. The experiment in a line: PROTAC activity at VHL/KRAS G12C mutant in human NCI-H23 cells assessed as induction of KRAS G12C degradation relative to control. It is filed as cell-based.
Data set [14] deals with T1, GTPase KRas. The experiment in a line: Inhibition of KRAS G12C mutant in human HCC1171 cells. Format: cell-based.
The target of data set [15] is T1, GTPase KRas. As to the kind of experiment: Inhibition of KRAS G12C mutant (unknown origin) by HTRF method. Background: Time-resolved FRET reads energy transfer from a long-lived donor to a nearby acceptor.
For data set [16], the system named is GTPase KRas (Homo sapiens), P01116 [G12C]. As to the kind of experiment: Inhibition of his tagged KRAS G12C mutant (1 to 169 residues) (unknown origin) by RapidFire mass spectrometric analysis. The conditions noted are these: concentration not given here.
Data set [17] relates to NCI-H358. As to the kind of experiment: Antitumor activity against human NCI-H358 cells xenografted in Balb/c nude mouse assessed as tumor growth inhibition at 15 mg/kg measured after 27 days by vernier caliper based assay relative to control. Conditions: NCI-H358, 648 h, time 27 day, read-out: TGI. Format: functional. (In general: Xenograft models place foreign cells or tissue in a host animal.)

In data set [18] the test system is GTPase KRas (Homo sapiens), P01116 [G12C]. The experiment in a line: Inhibition of KRAS G12C mutant (unknown origin) at 5 uM relative to control.
For data set [19] the test system is unchanged. As to the kind of experiment: Inhibition of KRAS G12C mutant (1 to 169 residues) (unknown origin) at 5 uM incubated for 1 min by Mass spectrometry reactivity assay.
In data set [20] the test system is NCI-H358. The experiment in a line: Antitumor activity against human NCI-H358 cells xenografted in Balb/c nude mouse assessed as tumor growth inhibition at 5 mg/kg measured after 27 days by vernier caliper based assay relative to control. It is filed as functional. Conditions: NCI-H358, 648 h, time 27 day, read-out: TGI.
For another data set, the system named is MIA PaCa-2. The experiment in a line: Antiproliferative activity against human MIA PaCa-2 cells harbouring KRAS G12C mutant by CellTiter-Glo assay. Format: functional, cell-based. On the technique in general: Cellular ATP, detected with luciferase, serves as a proxy for viable cell number.
The next data set deals with A-375. As to the kind of experiment: Antiproliferative activity against human A-375 cells by CellTiter-Glo assay. Format: functional, cell-based.
Data set [21] concerns NCI-H358. As to the kind of experiment: Antiproliferative activity against human NCI-H358 cells harbouring KRAS G12C mutant by CellTiter-Glo assay. Format: functional, cell-based.

With `C=CC(=O)N1CCN(c2nc(OCCN3CCCC3=O)nc3c(F)c(-c4c(O)cccc4F)c(Cl)cc23)CC1`, in [1], the inhibition (commonly the percentage by which the read-out fell short of the control) is above 90%.
On to `C=C(F)C(=O)N1CCN(c2nc(CO[C@@H]3CCCN3CCC(=O)NCCOCCOCCC(=O)N[C@@H](C(=O)N3[C@H](O)CC[C@H]3C(=O)NCc3ccc(-c4scnc4C)cc3)C(C)(C)C)nc3c2CCN(c2cccc4cccc(Cl)c24)C3)C[C@@H]1CC#N`, for which the Emax (usually the size of the effect at its maximum, as opposed to the concentration needed) in data set [2] is 30%. Further, the values for the concentration for a half-maximal effect (EC50) at GTPase KRas [3] and at GTPase KRas [4] were above 10000 nM and 1300 nM, respectively.
For the compound `C=CC(=O)N1C[C@H](C)N(c2nc(N3CC(N(C)C)C3)nc3c(F)c(-c4c(C)ccc5cn[nH]c45)c(Cl)cc23)C[C@H]1C`, the half-life (in general, the time in which the quantity being followed falls by half) was 5.95 h in [5] and 3.9 h in data set [7]. The compound further came in with an Activity in data set [6] above 90%.
On to `C=CC(=O)N1CCN(c2nc(N3CC(N(C)C)C3)nc3c2C[C@@H](C)[C@H](c2c(Cl)c(C)cc4[nH]ccc24)C3)C[C@H]1C`, for which the concentration for half-maximal inhibition (IC50) (commonly the concentration that gives 50% inhibition) on GTPase KRas [8] was found to be 60 nM; against GTPase KRas [10], 64 nM. In data set [9], this compound came in with an inhibition of 80%.
Take `C=C(F)C(=O)N1CCN(c2nc(CO[C@@H]3CCCN3CCCOCCC(=O)N[C@@H](C(=O)C3N[C@H](C(=O)NCc4ccc(-c5scnc5C)cc4)C[C@H]3O)C(C)(C)C)nc3c2CCN(c2cccc4cccc(Cl)c24)C3)C[C@@H]1CC#N` (stereo partly drawn): the DC50 (commonly the midpoint of the concentration-degradation curve) in data set [11] amounted to 590 nM; in [12] it was 760 nM. The Emax was 75% in [2] and 90% in data set [13]. Moreover, the concentration for a half-maximal effect (EC50) (usually the concentration giving half of the maximal effect) at GTPase KRas [3] was 3800 nM; at GTPase KRas [4], 2900 nM.
For the compound `C=CC(=O)N1CCN(c2nc(OC[C@@H]3CCCN3C)nc3c2C[C@@H](C)C(c2cc(O)cc4ccccc24)C3)[C@@H](C)C1` (stereo partly drawn), the values for the IC50 against GTPase KRas [14] and at GTPase KRas [15] were below 6 nM and below 10 nM, respectively.
`C=CC(=O)N1CCN(c2c3c(nc4c(F)c(-c5c(O)cccc5F)c(Cl)cc24)NC(=O)NC3)CC1` had an inhibition in data set [16] above 50%.
As to `C=CC(=O)N1CCN(c2ncnc3c(F)c(-c4c(O)cccc4F)c(Cl)cc23)CC1`, the inhibition in vivo at 15 mg/kg in the data set on NCI-H358 [17] came to 52%.
With `C=CC(=O)N1CCN(c2nc(N3CC(N(C)C)C3)nc3c2C[C@@H](C)C(c2c(C)c(Cl)cc4[nH]ncc24)C3)CC1` (stereo partly drawn), the inhibition in data set [18] came to 78%. Also, the half-maximal inhibitory concentration (IC50) is 68 nM at GTPase KRas [8] and 102 nM on GTPase KRas [10].
Regarding `C=CC(=O)N1CCN(c2nc(O[C@@H]3CN(C)C[C@H]3OC)nc3c(Oc4c(Cl)c(Cl)cc5[nH]ncc45)nc(Cl)cc23)CC1`, the inhibition in data set [19] is 82%.
For the compound `C=CC(=O)N1CCN(c2nc(OCCN3CC(F)(F)C3)nc3c(F)c(-c4c(O)cccc4F)c(Cl)cc23)CC1`, the half-life in data set [5] is 3 h; in [7] it was 7.8 h. This compound yielded an Activity in data set [6] above 90%.
Turning to `C=CC(=O)N1CCN(c2ncnc3c(=O)n(-c4c(N)c(Cl)cc(Cl)c4F)c(C(F)(F)F)cc23)CC1`, the inhibition in vivo at 5 mg/kg with NCI-H358 [20] stood at 107%. Further, the inhibition in vivo at 15 mg/kg in the data set on NCI-H358 [17] was 116%. Besides, the IC50 stood at 70000 nM in the data set on MIA PaCa-2 and 7320 nM in the data set with A-375.
Take `C=CC(=O)N1CCN(c2nc(Oc3cccc4c3CCN(C)C4)nc3c(Oc4c(Cl)c(F)cc5[nH]ncc45)nccc23)CC1`: the inhibition in data set [19] was 80%.
Consider `C=CC(=O)N1CCN(c2ncnc3c(=O)n(-c4c(O)cccc4F)c(C(F)(F)F)cc23)CC1`, for which the IC50 in the data set with NCI-H358 [21] was 5360 nM; with MIA PaCa-2, 6480 nM; in the data set on A-375 it was above 50000 nM.
In the case of `C=CC(=O)N1C[C@H](C)N(c2nc(OCCN3CC(F)(F)C3)nc3c(F)c(-c4c(O)cccc4F)c(Cl)cc23)C[C@H]1C`, the half-life was 3 h in data set [5] and 7.8 h in [7]. For the same compound, the Activity in data set [6] is above 90%.
